Experiment: xn = mol fraction of the nth substance listed

C[N+](C)(C)CCO.O=C([O-])c1cccnc1 + O
viscosity [mPa·s], 100 kPa
Details	x1 = 0.0008779	x1 = 0.001474	x1 = 0.00202	x1 = 0.002696	x1 = 0.00365	x1 = 0.005797
293.15 K	1.041	1.065	1.087	1.115	1.153	1.238
298.15 K	0.928	0.949	0.968	0.992	1.025	1.097
303.15 K	0.833	0.852	0.869	0.889	0.918	0.98
308.15 K	0.752	0.769	0.784	0.802	0.827	0.88
313.15 K	0.685	0.7	0.713	0.729	0.75	0.796

CCCCCC[n+]1ccn(C)c1.F[B-](F)(F)F + CCCN
Details	viscosity [mPa·s]
298.15 K, 101 kPa, x2 = 0	171.8

— the CheMixHub ionic liquid set
